Reference: the NIST ThermoML archive (doi:10.1021/je049612f)

Details: Gas, Vibrating wire viscometry

FS(F)(F)(F)(F)F [sulfur hexafluoride]
Details	viscosity [mPa·s]
350 K, 269.03 kPa	0.0176
350 K, 295.24 kPa	0.0176
350 K, 332.44 kPa	0.01761
350 K, 363.13 kPa	0.01762
350 K, 390.5 kPa	0.01763
350 K, 418.5 kPa	0.01765
350 K, 450.38 kPa	0.01765
350 K, 485.3 kPa	0.01766
350 K, 522.75 kPa	0.01767
350 K, 552.81 kPa	0.01768
350 K, 579.7 kPa	0.01769
350 K, 619.51 kPa	0.01771
350 K, 654.26 kPa	0.01772
350 K, 701.64 kPa	0.01775
350 K, 739.48 kPa	0.01775
350 K, 779.89 kPa	0.01777
350 K, 809.98 kPa	0.01779
350 K, 855.04 kPa	0.0178
350 K, 900.26 kPa	0.01782
350 K, 954.25 kPa	0.01784
350 K, 997.88 kPa	0.01787
350 K, 1051.5 kPa	0.0179
350 K, 1146.2 kPa	0.01795
350 K, 1196.5 kPa	0.01798
350 K, 1265.4 kPa	0.01803
350 K, 1341.2 kPa	0.01807
350 K, 1392.7 kPa	0.01811
350 K, 1473.1 kPa	0.01816
350 K, 1546.1 kPa	0.01821
350 K, 1621.8 kPa	0.01827
350 K, 1656.3 kPa	0.0183
350 K, 1713.2 kPa	0.01835
350 K, 1840 kPa	0.01844
350 K, 1888.3 kPa	0.01849
350 K, 1964.6 kPa	0.01856
350 K, 2005.9 kPa	0.01861
350 K, 2043.2 kPa	0.01864
350 K, 2108.6 kPa	0.01871
350 K, 2309.3 kPa	0.01893
350 K, 2394 kPa	0.01903
350 K, 2449.2 kPa	0.01908
350 K, 2505.1 kPa	0.01916
350 K, 2608.1 kPa	0.01929
350 K, 2657.7 kPa	0.01936
350 K, 2798.4 kPa	0.01957
350 K, 2900.4 kPa	0.01971
350 K, 2978.2 kPa	0.01986
350 K, 3047.1 kPa	0.01996
350 K, 3125.3 kPa	0.0201
350 K, 3224.5 kPa	0.02028
350 K, 3319.6 kPa	0.02047
350 K, 3405.3 kPa	0.02064
350 K, 3504.4 kPa	0.02085
350 K, 3655.4 kPa	0.02123
350 K, 3748 kPa	0.02146
350 K, 3869.5 kPa	0.02179
350 K, 3987.5 kPa	0.02211
350 K, 4143 kPa	0.02261
350 K, 4307.3 kPa	0.02322
350 K, 4473.2 kPa	0.02386
350 K, 4598.1 kPa	0.02443
350 K, 4732.9 kPa	0.02508
350 K, 4848.3 kPa	0.02571
350 K, 4964.3 kPa	0.02637
350 K, 5096.1 kPa	0.02724
350 K, 5208.7 kPa	0.02806
350 K, 5327.4 kPa	0.02902
350 K, 5431.3 kPa	0.02995
350 K, 5524.2 kPa	0.03078
350 K, 5638.8 kPa	0.03189
350 K, 5741 kPa	0.03299
350 K, 5850 kPa	0.03434
350 K, 5956.2 kPa	0.03561
350 K, 6067.6 kPa	0.03706
350 K, 6177.6 kPa	0.03857
350 K, 6280.8 kPa	0.03995
350 K, 6385.1 kPa	0.04139
350 K, 6510.8 kPa	0.04319
350 K, 6635.4 kPa	0.04497
350 K, 6769.6 kPa	0.04684
350 K, 6918.8 kPa	0.04891
350 K, 7076.5 kPa	0.05108
350 K, 7230 kPa	0.05306
350 K, 7408.1 kPa	0.05532
350 K, 7592 kPa	0.05755
350 K, 7767.3 kPa	0.05957
350 K, 8006.2 kPa	0.06218
350 K, 8297.4 kPa	0.06505
350 K, 8558.7 kPa	0.06754
350 K, 8849.5 kPa	0.07028
350 K, 9294 kPa	0.07399
350 K, 9823.4 kPa	0.07814
350 K, 10614 kPa	0.08354
350 K, 11424 kPa	0.08869
350 K, 12301 kPa	0.09386
375 K, 72.56 kPa	0.01862
375 K, 103.02 kPa	0.01864
375 K, 132.08 kPa	0.01864
375 K, 156.74 kPa	0.01865
375 K, 183.32 kPa	0.01866
375 K, 219.98 kPa	0.01868
375 K, 258.3 kPa	0.01869
375 K, 282.8 kPa	0.0187
375 K, 308.36 kPa	0.01871
375 K, 342.15 kPa	0.01871
375 K, 371.36 kPa	0.01872
375 K, 403.52 kPa	0.01873
375 K, 435.36 kPa	0.01874
375 K, 464.82 kPa	0.01875
375 K, 499.73 kPa	0.01876
375 K, 539.14 kPa	0.01878
375 K, 563.93 kPa	0.01878
375 K, 612.98 kPa	0.0188
375 K, 661.4 kPa	0.01882
375 K, 695.12 kPa	0.01884
375 K, 746.7 kPa	0.01886
375 K, 805.08 kPa	0.01888
375 K, 855.26 kPa	0.0189
375 K, 917.96 kPa	0.01894
375 K, 999.57 kPa	0.01897
375 K, 1067.6 kPa	0.01901
375 K, 1146.8 kPa	0.01905
375 K, 1211.3 kPa	0.01909
375 K, 1302.5 kPa	0.01914
375 K, 1385 kPa	0.01919
375 K, 1460.9 kPa	0.01924
375 K, 1534.4 kPa	0.01928
375 K, 1588.3 kPa	0.01932
375 K, 1723.3 kPa	0.01941
375 K, 1809.5 kPa	0.01948
375 K, 1885.1 kPa	0.01954
375 K, 1966.6 kPa	0.01959
375 K, 2043 kPa	0.01966
375 K, 2300.6 kPa	0.0199
375 K, 2399.3 kPa	0.01998
375 K, 2484.3 kPa	0.02006
375 K, 2587.3 kPa	0.02019
375 K, 2879.2 kPa	0.02051
375 K, 3052.5 kPa	0.02072
375 K, 3214.1 kPa	0.02095
375 K, 3418.4 kPa	0.02122
375 K, 3699.7 kPa	0.02167
375 K, 3960.7 kPa	0.02214
375 K, 4136.6 kPa	0.02249
375 K, 4384.3 kPa	0.02299
375 K, 4599 kPa	0.02348
375 K, 4821 kPa	0.02401
375 K, 5057 kPa	0.02467
375 K, 5280.9 kPa	0.02535
375 K, 5535.4 kPa	0.02617
375 K, 5778.6 kPa	0.02706
375 K, 6000.4 kPa	0.02791
375 K, 6326.2 kPa	0.02939
375 K, 6677.7 kPa	0.03112
375 K, 6887.6 kPa	0.03224
375 K, 7092.9 kPa	0.03343
375 K, 7293.5 kPa	0.03466
375 K, 7524.4 kPa	0.03612
375 K, 7762.9 kPa	0.0377
375 K, 7973.1 kPa	0.03919
375 K, 8202 kPa	0.04079
375 K, 8452.7 kPa	0.04259
375 K, 8711.3 kPa	0.04448
375 K, 8972.9 kPa	0.04632
375 K, 9257.7 kPa	0.04836
375 K, 9573.7 kPa	0.05065
375 K, 9868.9 kPa	0.05275
375 K, 10221 kPa	0.05519
375 K, 10547 kPa	0.05738
